# US7354955B2, “(2S)-amino(phenyl)acetic acid and derivatives as α2δ voltage-gated calcium channel ligands” (Abbott Laboratories, priority 2004, dated 2008)
# Like-named read-outs stand apart in the source and are kept apart here.
# Experiments:
# [1] = tested on: mechanical allodynia in rats that had undergone spinal nerve ligation; experiment: Analgesic effect: mechanical allodynia (von Frey) after L5/L6 spinal nerve ligation; settings: oral, 60 minutes before von Frey testing; percentage of maximal protective effect relative to vehicle; Sprague Dawley rats
# [2] = tested on: gabapentin binding site; settings: cited from earlier work
# [3] = anti-convulsant drugs, background statement
compound,measurement,setting,value
N[C@H](C(=O)O)c1ccccc1 [(2S)-amino(phenyl)acetic acid],EC50,[1],50 µmol/kg
NCC1(CC(=O)O)CCCCC1 [Gabapentin],EC50,[1],160 µmol/kg
C[C@]12N[C@H](Cc3ccccc31)c1ccccc12 [MK801],interaction with the gabapentin binding site,[2],do not interact
Cn1c(=O)c2c(ncn2C)n(C)c1=O [caffeine],interaction with the gabapentin binding site,"[2]; ligands for other calcium channel subtypes, background statement",do not interact
COc1cc(CNC(=O)CCCC/C=C/C(C)C)ccc1O [capsaisin],interaction with the gabapentin binding site,[2],do not interact
NC(=O)N1c2ccccc2C=Cc2ccccc21 [carbamazepine],competition for gabapentin binding,[2]; [3],do not compete
CN1C(=O)CN=C(c2ccccc2)c2cc(Cl)ccc21 [diazepam],competition for gabapentin binding,[2],do not compete
CCC1(c2ccccc2)C(=O)NC(=O)NC1=O [phenobarbitone],competition for gabapentin binding,[2],do not compete
O=C1NC(=O)C(c2ccccc2)(c2ccccc2)N1 [phenytoin],competition for gabapentin binding,[2]; [3],do not compete
COc1ccc(CCN(C)CCCC(C#N)(c2ccc(OC)c(OC)c2)C(C)C)cc1OC (centres unmarked) [verapamil],interaction with the gabapentin binding site,[2],do not interact
ryanodine,interaction with the gabapentin binding site,[2],do not interact
